Source: patent US12414907B2, “Peptide having hair growth promoting activity and use thereof” (CAREGEN CO., LTD., priority 2019, dated 2025)

Experiments:
β-catenin = assay: Western blotting of nuclear β-catenin in dermal papilla cells; assay type: cell-based, human; settings: peptide 0.5 uM, 5 uM or 50 uM, serum-free medium, 24 hours, nuclear proteins; FIG. 3
Description: The effect of the peptide consisting of the amino acid sequence of SEQ ID NO: 1 on the activation of a proliferation mechanism of hair follicle cells was to be confirmed. In detail, human dermal papilla cells were seeded in a 6-well plate at a density of 4×10^5 cells/well, and cultured for 16 hours. The culture medium was replaced with a serum-free medium, and the peptide was added thereto at a concentration of 0.5 uM, 5 uM, or 50 uM, and the cells were cultured for 24 hours. Here, as a positive control group, 5 uM of Minoxidil was treated. The cells were harvested and nuclear proteins thereof were isolated by using a nuclear protein extraction kit (Merck, USA). Then, western blotting was performed with respect to β-catenin which is a factor related to proliferation of the dermal papilla cells by using β-catenin antibodies (Santacruz biotechnology, USA).

[1] = system: human hair follicle dermal papilla cells; assay: Proliferation of human hair follicle dermal papilla cells (MTT method); assay type: cell-based; settings: peptide 0.5 uM, 5 uM or 50 uM, serum-free medium, 72 hours; FIG. 1
Description: The promoting effect of the peptide consisting of the amino acid sequence of SEQ ID NO: 1 on the proliferation of hair follicle cells was to be confirmed. In detail, human hair follicle dermal papilla cells were seeded in a 96-well plate at a density of 5×10^3 cells/well, and cultured for 16 hours. The culture medium was replaced with a serum-free medium, and the peptide was added thereto at a concentration of 0.5 uM, 5 uM, or 50 uM, and the cells were cultured for 72 hours. Here, as a positive control group, 5 uM of Minoxidil which is used as a hair loss treatment was treated. Afterwards, an MTT method was performed to measure the cell proliferation. In detail, 4 ug/ml of 3-(4,5-dimethylthiazol-2-yl)-2,5-diphenyltetrazolium bromide (MTT) was treated, and 4 hours later, DMSO was treated thereon to dissolve formazan. Then, the absorbance at 560 nm was measured by using a spectrophotometer.

DKK-1 = assay: Western blotting of DKK-1 expression in DHT-stimulated dermal papilla cells; assay type: cell-based, human; settings: DHT 10 ug/ml as stimulator, peptide 0.5 uM, 5 uM or 50 uM, 24 hours; FIG. 4
Description: The inhibitory effect of the peptide consisting of the amino acid sequence of SEQ ID NO: 1 on the expression of DKK-1, which is a hair loss-related factor, in hair follicle cells was to be confirmed. In detail, human dermal papilla cells were seeded in a 6-well plate at a density of 4x10^5 cells/well, and cultured for 16 hours. After the culture medium was replaced with a serum-free medium, dihydrotestosterone (DHT) as a stimulator was added thereto at a concentration of 10 ug/ml while peptide was added thereto at a concentration of 0.5 uM, 5 uM, or 50 uM. Then, the cells were cultured for 24 hours. The cells were harvested and nuclear proteins thereof were isolated by using a nuclear protein extraction kit. Then, western blotting was performed by using DKK-1 antibodies (Santacruz biotechnology, USA). Here, DHT is known as a hair loss hormone that increases the expression of DKK-1, which is a hair loss-inducible factor, by activating an androgen receptor.

AKT = assay: Western blotting of phosphorylated AKT in dermal papilla cells; assay type: cell-based, human; settings: peptide 0.5 uM, 5 uM or 50 uM, serum-free medium, 30 minutes; FIG. 2
Description: (§1) The effect of the peptide consisting of the amino acid sequence of SEQ ID NO: 1 on the activation of proliferation-related factors in hair follicle cells was to be confirmed. In detail, human dermal papilla cells were seeded in a 6-well plate at a density of 4×10^5 cells/well, and cultured for 16 hours. The culture medium was replaced with a serum-free medium, and the peptide was added thereto at a concentration of 0.5 uM, 5 uM, or 50 uM, and the cells were cultured for 30 minutes. Here, as a positive control group, 5 uM of Minoxidil was treated. Cell lysates were prepared by harvesting the cell, and then, western blotting was performed with respect to phosphorylated ERK and phosphorylated AKT by using p-ERK antibodies and p-AKT antibodies (Santacruz biotechnology, USA).

ERK = assay: Western blotting of phosphorylated ERK in dermal papilla cells; assay type: cell-based, human; settings: peptide 0.5 uM, 5 uM or 50 uM, serum-free medium, 30 minutes; FIG. 2
Description: as §1

TGFβ-1 = assay: PCR of TGFβ-1 expression in dermal papilla cells; assay type: cell-based, human; settings: peptide 0.5 uM, 5 uM or 50 uM, serum-free medium, 24 hours, PCR with GAPDH; FIG. 5
Description: The inhibitory effect of the peptide consisting of the amino acid sequence of SEQ ID NO: 1 on the expression of TGFβ-1, which is a hair loss-related factor, in hair follicle cells was to be confirmed. In detail, human dermal papilla cells were seeded in a 6-well plate at a density of 4x10^5 cells/well, and cultured for 16 hours. The culture medium was replaced with a serum-free medium, and the peptide was added thereto at a concentration of 0.5 uM, 5 uM, or 50 uM, and the cells were cultured for 24 hours. Here, as a positive control group, 5 uM of Minoxidil was treated. After the cells were harvested, RNA was extracted therefrom and used for synthesis of cNDA by using a cDNA synthesis kit and PCR pre-mix. TGFβ-1, as an androgen-inducible factor in hair follicle cells, is known to be related to hair loss.

## WQNMRL [SEQ ID NO: 1]
β-catenin
  movement of β-catenin from the cytoplasm to the nucleus: increased
[1]
  proliferation of human dermal papilla cells (MTT, absorbance at 560 nm): promoted the proliferation of human dermal papilla cells
DKK-1
  expression of DKK-1: inhibit the expression of DKK-1
AKT
  phosphorylation of AKT: induced
ERK
  phosphorylation of ERK: induced
TGFβ-1
  expression of TGFβ-1: inhibit the expression of TGFβ-1
